Experimental findings from patent publication US20230343467A1, “SYSTEMS AND METHODS FOR IDENTIFICATION OF CELL LINES, BIOMARKERS, AND PATIENTS FOR DRUG RESPONSE PREDICTION” (THERAINDX LIFESCIENCES PVT LTD, priority 2020, published 2023) are described below.

The structures appear in SMILES notation.

One test deals with MCF7. As to the kind of experiment: In vitro potency (IC50) of Palbociclib on breast cancer cell line. The test is classed as cell-based. The conditions noted are these: Homo sapiens, read-out: Observed IC50. The text has this: (§1) Palbociclib, a targeted inhibitor of CDK4/6 indicated for breast cancer. Identification of Human Breast Cancer cell lines sensitive and resistant to Palbociclib using the method 300 for drug discovery and development, particularly for identification, selection and validation of Human Cancer Cell lines and Biomarkers based on Pharmacological Target(s). A comparison of Predicted Efficacy with Observed Efficacy in cell lines/patients is provided. The pharmacological target is Ser/Thr-kinase component of cyclin D-CDK4/6, which inhibits CDK4/6 phosphorylation of retinoblastoma (RB) protein family (RB1). The phenotypic end point of which is the inhibition of cell proliferation. Further, the Breast Cancer Cell Lines are selected based on the multi-omics and pathway regulator status. […] The predicted response (sensitivity or resistance to Palbociclib) was compared with cell line in vitro potency data (IC50) of Palbociclib. The predicted responses were in agreement with observed data (IC50) for Palbociclib's activity on various Human Breast Cancer cell lines. Table 6a and 6b show the comparison of predicted response values, for both sensitive and resistant to Palbociclib, with observed data.

The subject of a further test is MDAMB231. The description is as above. The test is classed as cell-based. Conditions: Homo sapiens, MDA-MB-231, read-out: Observed IC50.
Text: as §1

For another test, the system named is HCC2157. The description is as above. The test is classed as cell-based. The conditions noted are these: Homo sapiens, read-out: Observed IC50.
Text: as §1

The next test relates to MDAMB157. The test is described as above. The test is classed as cell-based. The conditions noted are these: Homo sapiens, MDA-MB-157, read-out: Observed IC50.
Text: as §1

In a further test the test system is EFM19. The description is as above. The test is classed as cell-based. Conditions: Homo sapiens, EFM-19, read-out: Observed IC50.
Text: as §1

Another test has as its system HCC1569. Described as above. The conditions noted are these: Homo sapiens, read-out: Observed IC50. The test is classed as cell-based.
Text: as §1

The subject of the next test is DU4475. Described as above. The test is classed as cell-based. Conditions: Homo sapiens, DU-4475, read-out: Observed IC50.
Text: as §1

A further test deals with HCC1500. The test is described as above. The conditions noted are these: Homo sapiens, read-out: Observed IC50. The test is classed as cell-based.
Text: as §1

The next test relates to MDAMB468. Described as above. The conditions noted are these: Homo sapiens, MDA-MB-468, read-out: Observed IC50. The test is classed as cell-based.
Text: as §1

Another test relates to MDAMB361. The description is as above. The test is classed as cell-based. Conditions: Homo sapiens, MDA-MB-361, read-out: Observed IC50.
Text: as §1

Test [1] concerns cell line population with amplified ABCB1. Nature of the test: Response curves (IC50 values) of cell line populations, transporter amplified vs wildtype, vincristine. Conditions: IC50 values for 530 cell lines from Cancerrx. The text has this:
(§2) The drug transporter identification module 205 allows identification of co-relating genomic factors such as factors affecting drug transporters, transporter genes, or any alterations therein such as transporter gene amplification including copy number alterations ([…]), increased m-RNA expressions, etc. particularly associated with multidrug resistance (MDR) development. The drug transporter identification module 205 allows identifying drug transporter factors that impact the efficacy of the drug of interest using in vitro sensitivity data, during pre-clinical phase of drug development. […] Drug transporters such as solute carrier (SLC) family and ATP-binding cassette (ABC) family are known to function as drug efflux pumps which contribute towards drug resistance and reduced bioavailability. The method, in various embodiments herein use in vitro sensitivity data in identification of MDR transporter genes during pre-clinical phase of drug development. In an embodiment, in vitro sensitivity data for chemo therapeutic drug, vincristine (particularly cell line-specific IC50 values for 530 cell lines), from cancerrx (database of genomics of drug sensitivity), and cell multi-omics characteristics, from Cancer Cell Line Encyclopedia (CCLE) were used as inputs for the stratification algorithm. […]

Test [2] concerns cell line population with amplified ABCB4. The test is described as above. Conditions: IC50 values for 530 cell lines from Cancerrx.
Text: as §2

By IC50 is commonly meant the concentration at which inhibition is half-maximal. As for `CC(=O)c1c(C)c2cnc(Nc3ccc(N4CCNCC4)cn3)nc2n(C2CCCC2)c1=O` [Palbociclib], the IC50 is 148 nM with MCF7; 432 nM with MDAMB231; more than 1000 nM with HCC2157; more than 1000 nM in the test with MDAMB157; 27 nM in the test with EFM19; more than 1000 nM in the test with HCC1569. The IC50 is more than 1000 nM in the test on DU4475, 45 nM in the test with HCC1500, more than 1000 nM in the test with MDAMB468 and 44 nM with MDAMB361.
Take `CC[C@]1(O)C[C@H]2CN(CCc3c([nH]c4ccccc34)[C@@](C(=O)OC)(c3cc4c(cc3OC)N(C=O)[C@H]3[C@@](O)(C(=O)OC)[C@H](OC(C)=O)[C@]5(CC)C=CCN6CC[C@]43[C@@H]65)C2)C1` [vincristine]: in [1], the “Efficacy in cell line population with ABCB1 amplification compared to wildtype (median of response curves)” value is recorded as “lesser efficacy”. For the same compound, in test [2], the “Efficacy in cell line population with ABCB4 amplification compared to wildtype (median of response curves)” value is “lower efficacy”.
